Like-named read-outs stand apart in the source and are kept apart here.
What was measured:
HEK293 cells = settings: human
COS = settings: African green monkey
CHO = settings: Chinese hamster
[1] = Mouse liver microsomal stability; type: in vitro ADME; settings: liver microsomes, 37 °C
CpIMPDH = molecular target: T1, CpIMPDH (Cryptosporidium parvum, UniProt Q8T6T2); assay: biochemical; type: biochemical; settings: for inhibition mechanism with respect to NAD+: best fit; for inhibition mechanism with respect to NAD+ / inhibition mechanism with respect to IMP: in words
T1 sequence (Q8T6T2 1-400): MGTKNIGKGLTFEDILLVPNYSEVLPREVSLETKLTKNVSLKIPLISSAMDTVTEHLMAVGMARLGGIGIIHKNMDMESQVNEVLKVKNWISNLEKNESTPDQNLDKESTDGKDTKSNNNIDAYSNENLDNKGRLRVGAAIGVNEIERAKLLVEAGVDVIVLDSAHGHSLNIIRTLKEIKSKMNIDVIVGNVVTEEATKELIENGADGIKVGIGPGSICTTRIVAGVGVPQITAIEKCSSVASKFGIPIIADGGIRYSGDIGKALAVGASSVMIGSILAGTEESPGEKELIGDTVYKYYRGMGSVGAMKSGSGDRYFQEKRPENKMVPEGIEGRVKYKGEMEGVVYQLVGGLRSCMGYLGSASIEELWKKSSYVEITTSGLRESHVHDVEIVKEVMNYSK

HeLa = settings: human
[2] = tested on: Toxo/CpIMPDH (T. gondii strain that relies on CpIMPDH); assay: microbe, parasite or virus in culture; type: cell-based, Toxoplasma gondii; settings: for EC50: Toxoplasma gondii, read-out: EC50 Toxo/CpIMPDH

SMILES	LD50 (HEK293 cells)	LD50 (COS)	LD50 (CHO)	Ki (CpIMPDH; Kis (nM), Substrate IMP)	inhibition mechanism with respect to NAD+ (CpIMPDH)	inhibition mechanism with respect to IMP (CpIMPDH)	further results
C[C@H](Nc1cccc(Cl)c1Cl)C(=O)Nc1ccc2oc(-c3ccncc3)nc2c1 [15a, (S)-2-(2,3-dichlorophenylamino)-N-(2-(pyridine-4-yl)benzo[d]oxazol-5-yl) propionamide]	> 50 µM	> 50 µM	> 50 µM				
C[C@H](Oc1cccc(Cl)c1Cl)C(=O)Nc1ccc2nc(-c3ccncc3)oc2c1 [40a, (S)-2-(2,3-dichlorophenoxy)-N-(2-(pyridin-4-yl)benzo[d]oxazol-6-yl)propionamide]	> 50 µM	> 50 µM	> 50 µM				half-life ([1]; t1/2 (min) + NADPH, + NADPH): ≤ 12 min; half-life ([1]; t1/2 (min) − NADPH, − NADPH): ≤ 12 min
CC(Oc1ccc(Cl)cc1Cl)C(=O)Nc1ccc2oc(-c3ccncc3)nc2c1 (stereo not drawn) [compound 1]				58 ± 5 nM	competitive	noncompetitive	Ki (CpIMPDH; Kis (nM), Substrate NAD): 33 ± 8 nM
CC(Oc1ccccc1Cl)C(=O)Nc1ccc2oc(-c3ccncc3)nc2c1 (stereo not drawn) [compound 41, 2-(2-chlorophenoxy)-N-(2-(pyridine-4-yl)benzo[d]oxazol-5-yl)propionamide]	~ 12.5 μM	> 50 µM	> 50 µM				LD50 (HeLa): > 50 µM
COc1ccc(OC(C)C(=O)Nc2ccc3oc(-c4ccncc4)nc3c2)cc1 (stereo not drawn) [compound 44, 2-(4-methoxyphenoxy)-N-(2-(pyridine-4-yl)benzo[d]oxazol-5-yl)propionamide]	> 50 µM	> 50 µM	> 50 µM				
CC(Oc1cccc(Cl)c1Cl)C(=O)Nc1ccc2oc(-c3ccncc3)nc2c1 (stereo not drawn) [compound 46, 2-(2,3-dichlorophenoxy)-N-(2-(pyridine-4-yl)benzo[d]oxazol-5-yl)propionamide]	> 50 µM	> 50 µM	> 50 µM				selectivity versus Toxo/WT [2]: > 30 fold; EC50 [2]: ≤ 250 nM
CC(Oc1cccc2ccccc12)C(=O)Nc1ccc2oc(-c3ccncc3)nc2c1 (stereo not drawn) [compound 48, 2-(naphthalene-1-yloxy)-N-(2-(pyridine-4-yl)benzo[d]oxazol-5-yl)propionamide]							selectivity versus Toxo/WT [2]: > 30 fold; EC50 [2]: ≤ 250 nM
C[C@H](Oc1cccc(Cl)c1Cl)C(=O)Nc1ccc2oc(-c3ccncc3)nc2c1 [compound 55, (S)-2-(2,3-dichlorophenoxy)-N-(2-(pyridin-4-yl)benzo[d]oxazol-5-yl)propionamide]							half-life ([1]; t1/2 (min) + NADPH, + NADPH): ≤ 12 min; half-life ([1]; t1/2 (min) − NADPH, − NADPH): ≤ 12 min
C[C@H](Oc1cccc([N+](=O)[O-])c1Cl)C(=O)Nc1ccc2oc(-c3ccncc3)nc2c1 [compound 57, (S)-2-(2-chloro-3-nitrophenoxy)-N-(2-(pyridine-4-yl)benzo[d]oxazol-5-yl)propionamide]	> 50 µM	> 50 µM	> 50 µM				
C[C@H](Oc1cccc(Cl)c1Cl)C(=O)Nc1ccc2oc(-c3cncs3)nc2c1 [compound 62, (S)-2-(2,3-dichlorophenoxy)-N-(2-(thiazol-5-yl)benzo[d]oxazol-5-yl)propionamide]							half-life ([1]; t1/2 (min) + NADPH, + NADPH): ≤ 12 min; half-life ([1]; t1/2 (min) − NADPH, − NADPH): ≤ 12 min
C[C@H](Oc1cccc2ccccc12)C(=O)Nc1ccc2oc(-c3cncs3)nc2c1 [compound 63, (S)-2-(naphthalene-1-yloxy)-N-(2-(thiazol-5-yl)benzo[d]oxazol-5-yl)propionamide]				1.6 ± 0.7 nM	competitive	noncompetitive	Ki (CpIMPDH; Kis (nM), Substrate NAD): 0.9 ± 0.3 nM
C[C@H](Oc1cccc(Cl)c1Cl)C(=O)Nc1cc(Cl)c2oc(-c3ccncc3)nc2c1 [compound 68, (S)-N-(7-chloro-2-(pyridin-4-yl)benzo[d]oxazol-5-yl)-2-(2,3-dichlorophenoxy)propionamide]				210 ± 10 nM	competitive	noncompetitive	Ki (CpIMPDH): 150 ± 30 nM
C[C@@H](C(=O)Nc1ccc2oc(-c3ccncc3)nc2c1)c1ccccc1 [compound 72, (R)-2-phenyl-N-(2-(pyridine-4-yl)benzo[d]oxazol-5-yl)propionamide]				100 ± 20 nM	competitive	noncompetitive	Ki (CpIMPDH; Kis (nM), Substrate NAD): 40 ± 10 nM

Reference: publication PMC3756936 (Journal of medicinal chemistry, 2013)
